Measurements published in ChEMBL document CHEMBL1201862, “PubChem BioAssay data set” (2004).
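96-well plates; 48 h exposure; 5 concentrations. Endpoints by linear interpolation between flanking doses. Not reached: highest tested concentration assigned. GI50 = concentration required for 50% inhibition of growth.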 Activity calls are given as the source filed them. No stated cut-off is given here; in the data, active = GI50 up to about 1.1 µM and inactive = higher.

Columns and labels:
Experiment in all cases: NCI tumour cell line growth inhibition, 48 h
Malme-3M = system: Malme-3M
OVCAR-3 = system: OVCAR-3
NCI-H226 = system: NCI-H226
HCT-15 = system: HCT-15
SK-MEL-5 = system: SK-MEL-5
HCT-116 = system: HCT-116
EKVX = system: EKVX
MOLT-4 = system: MOLT-4
MCF7 = system: MCF7
KM-20L2 = system: KM-20L2
KM12 = system: KM12
SF-539 = system: SF-539
A549 = system: A549
RPMI-8226 = system: RPMI-8226
IGROV-1 = system: IGROV-1
NCI-H23 = system: NCI-H23
U-251 = system: U-251
NCI-H522 = system: NCI-H522
SR = system: SR
M14 = system: M14

## CN(C)CCNC(=O)c1cccc2nc(-c3ccccc3)oc12
Malme-3M
  GI50: 23.9 µM (inactive)
OVCAR-3
  GI50: 41.9 µM (inactive)
NCI-H226
  GI50: 29.1 µM (inactive)
HCT-15
  GI50: 43600 nM
SK-MEL-5
  GI50: 22.3 µM (inactive)
HCT-116
  GI50: 32.1 µM (inactive)
EKVX
  GI50: 6.97 µM (inactive)
MOLT-4
  GI50: 10.9 µM (inactive)
MCF7
  GI50: 14.7 µM (inactive)
KM-20L2
  GI50: 28.8 µM (inactive)
KM12
  GI50: 53.5 µM (inactive)
SF-539
  GI50: 49.9 µM (inactive)
A549
  GI50: 42.6 µM (inactive)
RPMI-8226
  GI50: 34.6 µM (inactive)
IGROV-1
  GI50: 44 µM (inactive)
NCI-H23
  GI50: 48.3 µM (inactive)
U-251
  GI50: 46.9 µM (inactive)

## CCCCCOc1ccc(/C=N\c2ccc(-c3ccc(/N=C\c4ccc(OCCCCC)cc4)c(OC)c3)cc2OC)cc1
Malme-3M
  GI50: > 100 µM (inactive)
OVCAR-3
  GI50: > 66.2 µM (inactive)
NCI-H226
  GI50: > 100 µM (inactive)
HCT-15
  GI50: > 100000 nM
SK-MEL-5
  GI50: > 100 µM (inactive)
HCT-116
  GI50: > 100 µM (inactive)
EKVX
  GI50: > 100 µM (inactive)
MOLT-4
  GI50: > 100 µM (inactive)
MCF7
  GI50: > 100 µM (inactive)
KM-20L2
  GI50: > 100 µM (inactive)
KM12
  GI50: > 100 µM (inactive)
SF-539
  GI50: > 100 µM (inactive)
A549
  GI50: > 100 µM (inactive)
NCI-H522
  GI50: > 100000 nM (inactive)
RPMI-8226
  GI50: > 100 µM (inactive)
IGROV-1
  GI50: > 100 µM (inactive)
NCI-H23
  GI50: > 100 µM (inactive)
U-251
  GI50: > 100 µM (inactive)

## CC[C@@]1(O)C[C@H](OC2CC(N(C)C)C(OC3CC(O)C(OC4CC(O)C(O)C(C)O4)C(C)O3)C(C)O2)c2c(cc3c(c2O)C(=O)c2c(O)ccc(O)c2C3=O)[C@H]1C(=O)OC (stereo not given in full)
Malme-3M
  GI50: 0.0478 µM (active)
OVCAR-3
  GI50: 0.0321 µM (active)
NCI-H226
  GI50: 0.0427 µM (active)
HCT-15
  GI50: 151 nM
SK-MEL-5
  GI50: 0.0194 µM (active)
HCT-116
  GI50: 0.00507 µM (active)
EKVX
  GI50: 0.0413 µM (active)
MOLT-4
  GI50: 0.0141 µM (active)
MCF7
  GI50: 0.0156 µM (active)
KM-20L2
  GI50: 0.108 µM (active)
KM12
  GI50: < 0.0174 µM (active)
SF-539
  GI50: < 0.0214 µM (active)
A549
  GI50: 0.0105 µM (active)
NCI-H522
  GI50: 34.3 nM (active)
RPMI-8226
  GI50: 0.011 µM (active)
IGROV-1
  GI50: < 0.023 µM (active)
NCI-H23
  GI50: 0.0404 µM (active)
U-251
  GI50: 0.084 µM (active)

## COCC(=O)[C@]1(O)Cc2c(O)c3c(c(O)c2[C@@H](OC2CC(N)C(O)C(C)O2)C1)C(=O)c1c(OC)cccc1C3=O (stereo not given in full)
Malme-3M
  GI50: 0.105 µM (active)
OVCAR-3
  GI50: 0.115 µM (active)
NCI-H226
  GI50: 0.0401 µM (active)
HCT-15
  GI50: 137 nM
SK-MEL-5
  GI50: 0.0728 µM (active)
HCT-116
  GI50: 0.0493 µM (active)
SR
  GI50: < 13.8 nM (active)
EKVX
  GI50: 0.455 µM (active)
MOLT-4
  GI50: 0.014 µM (active)
KM-20L2
  GI50: 0.111 µM (active)
M14
  GI50: 92.7 nM (active)
KM12
  GI50: 0.0564 µM (active)
SF-539
  GI50: 0.043 µM (active)
A549
  GI50: 0.219 µM (active)
NCI-H522
  GI50: 25.5 nM (active)
RPMI-8226
  GI50: 0.08 µM (active)
IGROV-1
  GI50: 0.136 µM (active)
NCI-H23
  GI50: 0.0536 µM (active)
U-251
  GI50: 0.0836 µM (active)

## CC(=O)OC1CC2(O)C(CCC3(C)C(c4ccc(=O)oc4)CCC32O)C2(C)CCC(O)C=C12 (stereo not given)
OVCAR-3
  GI50: 0.00469 µM (active)
NCI-H226
  GI50: 0.048 µM (active)
HCT-15
  GI50: 23.9 nM
SK-MEL-5
  GI50: 0.00439 µM (active)
HCT-116
  GI50: 0.0375 µM (active)
EKVX
  GI50: 0.0139 µM (active)
MOLT-4
  GI50: 0.00182 µM (active)
MCF7
  GI50: 0.0375 µM (active)
KM-20L2
  GI50: 0.0219 µM (active)
SF-539
  GI50: 0.00775 µM (active)
NCI-H522
  GI50: 1.74 nM (active)
RPMI-8226
  GI50: 0.00993 µM (active)
IGROV-1
  GI50: 0.0195 µM (active)
NCI-H23
  GI50: 0.00246 µM (active)
U-251
  GI50: 0.0169 µM (active)

## CC(=O)Nc1ccc(/C=C/c2ccc(NC(=O)Nc3ccc(/C=C/c4ccc(NC(C)=O)cc4S(=O)(=O)O)c(S(=O)(=O)O)c3)cc2S(=O)(=O)O)c(S(=O)(=O)O)c1
Malme-3M
  GI50: > 100 µM (inactive)
OVCAR-3
  GI50: > 100 µM (inactive)
NCI-H226
  GI50: 39.8 µM (inactive)
HCT-15
  GI50: 45800 nM
SK-MEL-5
  GI50: > 100 µM (inactive)
HCT-116
  GI50: > 100 µM (inactive)
EKVX
  GI50: > 100 µM (inactive)
MOLT-4
  GI50: > 100 µM (inactive)
MCF7
  GI50: > 100 µM (inactive)
KM-20L2
  GI50: 77.8 µM (inactive)
KM12
  GI50: > 100 µM (inactive)
SF-539
  GI50: > 100 µM (inactive)
A549
  GI50: > 100 µM (inactive)
NCI-H522
  GI50: > 100000 nM (inactive)
RPMI-8226
  GI50: > 100 µM (inactive)
IGROV-1
  GI50: > 100 µM (inactive)
NCI-H23
  GI50: > 100 µM (inactive)
U-251
  GI50: > 100 µM (inactive)
